Test [1] can be described thus: Inhibition of PKC.
The nature of test [2]: Inhibition of thymocyte protein tyrosine kinase.
A short description of test [3]: Inhibition of PI3K.
The nature of test [4]: Inhibition of FGFR.
Test [5] has as its target Proto-oncogene tyrosine-protein kinase Src (Homo sapiens, UniProt P12931). The test is described as follows: Inhibition of c-Src.
Test [6] has as its target Epidermal growth factor receptor (Homo sapiens, UniProt P00533). The test is described as follows: Inhibition of EGFR.
Test [7] concerns the target Cyclin-dependent kinase 6 (Homo sapiens, UniProt Q00534). Put plainly: Inhibition of CDK6.
The nature of test [8]: Inhibition of CK2.
Test [9] in a line: Inhibition of PKA.
A short description of test [10]: Inhibition of CK1.
Test [11] addresses Myosin light chain kinase, smooth muscle (Homo sapiens, UniProt Q15746). Put plainly: Inhibition of MLCK.
A short description of test [12]: Inhibition of CaM kinase.
Test [13] can be described thus: Inhibition of Rous sarcoma virus SRC.
Test [14] in a line: Inhibition of PKD.

10 molecules from ChEMBL document CHEMBL1157216, “A common protein fold topology shared by flavonoid biosynthetic enzymes and therapeutic targets” (J Nat Prod, 2006) can be followed below.

Molecules are shown by their SMILES. ≈ marks a conversion by molar mass, not a printed value.

Epidermal growth factor receptor, sequence (P00533 whole entry): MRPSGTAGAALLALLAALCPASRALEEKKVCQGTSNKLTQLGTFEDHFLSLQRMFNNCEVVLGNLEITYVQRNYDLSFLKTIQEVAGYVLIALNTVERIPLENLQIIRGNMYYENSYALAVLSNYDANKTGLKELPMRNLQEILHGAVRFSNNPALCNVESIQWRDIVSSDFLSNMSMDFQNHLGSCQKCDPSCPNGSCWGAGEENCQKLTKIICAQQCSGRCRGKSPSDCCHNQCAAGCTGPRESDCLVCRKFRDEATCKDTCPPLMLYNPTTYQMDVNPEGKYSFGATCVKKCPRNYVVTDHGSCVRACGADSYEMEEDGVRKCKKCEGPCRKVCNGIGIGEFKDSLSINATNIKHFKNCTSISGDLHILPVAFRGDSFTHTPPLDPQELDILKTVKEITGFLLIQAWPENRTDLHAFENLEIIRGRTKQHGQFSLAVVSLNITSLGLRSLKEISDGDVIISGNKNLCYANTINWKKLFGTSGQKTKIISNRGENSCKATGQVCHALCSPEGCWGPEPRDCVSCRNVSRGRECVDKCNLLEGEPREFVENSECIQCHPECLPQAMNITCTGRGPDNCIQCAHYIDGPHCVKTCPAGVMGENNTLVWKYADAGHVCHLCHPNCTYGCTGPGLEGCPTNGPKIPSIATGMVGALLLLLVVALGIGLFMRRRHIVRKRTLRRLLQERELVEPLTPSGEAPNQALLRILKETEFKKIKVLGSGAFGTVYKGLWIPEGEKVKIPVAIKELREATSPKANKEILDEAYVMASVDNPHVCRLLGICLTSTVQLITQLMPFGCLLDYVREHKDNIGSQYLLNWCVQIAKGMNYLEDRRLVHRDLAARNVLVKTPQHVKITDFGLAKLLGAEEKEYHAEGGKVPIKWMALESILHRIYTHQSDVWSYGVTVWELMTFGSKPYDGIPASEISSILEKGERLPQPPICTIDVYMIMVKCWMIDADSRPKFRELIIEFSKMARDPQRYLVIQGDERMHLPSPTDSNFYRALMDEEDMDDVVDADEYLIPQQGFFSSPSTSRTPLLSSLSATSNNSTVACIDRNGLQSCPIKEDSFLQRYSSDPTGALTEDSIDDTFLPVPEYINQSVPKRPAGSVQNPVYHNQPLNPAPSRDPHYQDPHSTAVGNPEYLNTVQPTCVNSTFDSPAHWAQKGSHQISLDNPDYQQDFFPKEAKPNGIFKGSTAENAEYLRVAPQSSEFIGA
Myosin light chain kinase, smooth muscle, sequence (Q15746 whole entry): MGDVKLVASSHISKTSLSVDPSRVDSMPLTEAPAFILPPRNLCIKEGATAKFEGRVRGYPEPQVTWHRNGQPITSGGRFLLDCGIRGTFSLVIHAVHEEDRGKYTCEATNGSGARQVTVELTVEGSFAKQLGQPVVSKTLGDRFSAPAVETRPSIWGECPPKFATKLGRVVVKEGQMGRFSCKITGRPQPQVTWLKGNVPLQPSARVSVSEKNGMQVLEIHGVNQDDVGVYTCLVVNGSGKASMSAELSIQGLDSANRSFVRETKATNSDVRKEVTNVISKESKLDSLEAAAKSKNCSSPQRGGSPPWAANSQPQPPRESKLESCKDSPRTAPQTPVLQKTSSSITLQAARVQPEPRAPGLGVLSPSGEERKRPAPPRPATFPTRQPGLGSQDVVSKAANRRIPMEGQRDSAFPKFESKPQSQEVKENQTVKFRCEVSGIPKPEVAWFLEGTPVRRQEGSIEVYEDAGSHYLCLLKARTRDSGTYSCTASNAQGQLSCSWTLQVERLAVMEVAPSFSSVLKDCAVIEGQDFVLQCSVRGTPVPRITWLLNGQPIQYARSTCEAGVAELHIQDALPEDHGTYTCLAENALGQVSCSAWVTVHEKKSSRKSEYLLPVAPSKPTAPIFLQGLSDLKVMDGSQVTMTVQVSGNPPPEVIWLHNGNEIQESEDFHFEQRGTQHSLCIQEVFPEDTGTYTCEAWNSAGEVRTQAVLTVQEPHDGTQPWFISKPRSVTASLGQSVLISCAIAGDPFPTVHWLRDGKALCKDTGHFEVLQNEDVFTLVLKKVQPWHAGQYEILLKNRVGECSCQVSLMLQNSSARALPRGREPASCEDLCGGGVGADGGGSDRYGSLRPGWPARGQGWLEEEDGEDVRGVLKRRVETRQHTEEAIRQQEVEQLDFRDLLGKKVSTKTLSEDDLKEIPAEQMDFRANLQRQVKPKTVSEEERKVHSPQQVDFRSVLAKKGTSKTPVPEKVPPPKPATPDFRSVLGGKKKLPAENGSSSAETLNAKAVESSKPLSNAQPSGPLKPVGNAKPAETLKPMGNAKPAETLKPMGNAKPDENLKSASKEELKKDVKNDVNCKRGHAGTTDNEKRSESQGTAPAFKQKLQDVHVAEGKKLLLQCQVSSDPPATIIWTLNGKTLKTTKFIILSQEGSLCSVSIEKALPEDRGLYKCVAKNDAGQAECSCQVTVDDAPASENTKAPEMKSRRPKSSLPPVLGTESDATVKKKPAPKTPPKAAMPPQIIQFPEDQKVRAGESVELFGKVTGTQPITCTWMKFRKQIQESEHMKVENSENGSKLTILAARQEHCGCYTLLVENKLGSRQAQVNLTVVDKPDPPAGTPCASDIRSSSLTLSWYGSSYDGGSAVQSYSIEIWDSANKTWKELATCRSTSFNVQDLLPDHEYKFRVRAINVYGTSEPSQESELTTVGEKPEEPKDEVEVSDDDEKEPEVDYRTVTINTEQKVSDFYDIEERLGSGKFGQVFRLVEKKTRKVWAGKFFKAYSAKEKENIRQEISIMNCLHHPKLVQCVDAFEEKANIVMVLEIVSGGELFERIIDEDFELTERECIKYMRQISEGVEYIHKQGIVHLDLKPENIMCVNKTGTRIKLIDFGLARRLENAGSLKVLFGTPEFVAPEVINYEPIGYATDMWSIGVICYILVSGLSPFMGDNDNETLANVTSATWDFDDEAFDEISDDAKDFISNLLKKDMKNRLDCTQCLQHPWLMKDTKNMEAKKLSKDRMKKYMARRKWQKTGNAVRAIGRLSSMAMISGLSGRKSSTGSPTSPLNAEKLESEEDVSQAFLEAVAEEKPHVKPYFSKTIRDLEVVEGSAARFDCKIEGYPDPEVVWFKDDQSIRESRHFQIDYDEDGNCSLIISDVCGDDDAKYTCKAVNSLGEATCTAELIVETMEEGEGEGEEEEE
Proto-oncogene tyrosine-protein kinase Src, sequence (P12931 2-536 limits assumed): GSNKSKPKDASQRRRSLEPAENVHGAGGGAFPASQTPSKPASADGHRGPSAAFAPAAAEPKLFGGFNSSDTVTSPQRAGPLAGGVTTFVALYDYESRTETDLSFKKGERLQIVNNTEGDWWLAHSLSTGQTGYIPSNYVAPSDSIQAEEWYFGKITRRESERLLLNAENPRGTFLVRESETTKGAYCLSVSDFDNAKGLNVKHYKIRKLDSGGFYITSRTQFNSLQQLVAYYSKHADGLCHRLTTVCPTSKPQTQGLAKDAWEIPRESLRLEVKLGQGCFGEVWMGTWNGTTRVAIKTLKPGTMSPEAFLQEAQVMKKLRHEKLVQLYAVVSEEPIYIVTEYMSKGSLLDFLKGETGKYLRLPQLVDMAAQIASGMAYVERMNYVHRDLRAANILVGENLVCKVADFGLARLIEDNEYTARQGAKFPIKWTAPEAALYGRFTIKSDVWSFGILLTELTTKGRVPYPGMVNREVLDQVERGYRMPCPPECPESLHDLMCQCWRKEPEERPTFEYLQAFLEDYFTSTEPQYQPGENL
Cyclin-dependent kinase 6, sequence (Q00534 whole entry): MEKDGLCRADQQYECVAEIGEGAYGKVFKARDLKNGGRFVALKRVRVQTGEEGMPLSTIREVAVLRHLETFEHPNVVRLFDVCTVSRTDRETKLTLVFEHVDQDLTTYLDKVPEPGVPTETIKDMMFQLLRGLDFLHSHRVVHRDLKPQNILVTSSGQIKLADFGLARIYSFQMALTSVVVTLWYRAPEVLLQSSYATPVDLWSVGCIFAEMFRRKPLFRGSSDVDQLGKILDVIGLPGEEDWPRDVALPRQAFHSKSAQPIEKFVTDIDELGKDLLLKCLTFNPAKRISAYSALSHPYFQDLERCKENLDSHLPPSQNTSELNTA

A word on the IC50: it is the concentration at which inhibition is half-maximal. For `O=c1cc(-c2ccc(O)cc2)oc2cc(O)cc(O)c12` [APIGENIN], the IC50 in test [1] was found to be 10 µM; in test [3], 12 µM; in test [4] it was 20 µM. Moreover, the ID50 in [2] is 90 µg/mL (≈ 333 µM).
Consider `O=C(/C=C/c1ccc(O)c(O)c1)c1ccc(O)cc1O` [BUTEIN], for which the IC50 in [5] amounted to 65 µM; in [6], 8 µM.
`O=C1c2ccccc2-[n+]2ccc3c([nH]c4ccccc43)c21` [FASCAPLYSIN CHLORIDE] showed a concentration for half-maximal inhibition (IC50) in test [7] of 3.4 µM.
Turning to `O=c1c(O)c(-c2ccc(O)c(O)c2)oc2cc(O)ccc12` [FISETIN], the IC50 in test [2] was found to be 35 µM; in test [3], 10 µM; in test [8], 0.35 µM.
`O=c1cc(-c2ccc(O)c(O)c2)oc2cc(O)cc(O)c12` [LUTEOLIN] yielded an IC50 in [3] of 8 µM.
The Ki is a measure of affinity in units of concentration, obtained from inhibition or displacement. A high value points to weaker binding. For orientation: Kd means the free concentration of one partner at which half of the binding sites on the other are occupied at equilibrium, for simple one-to-one binding. A higher Kd goes with a looser complex. As to `O=c1c(O)c(-c2cc(O)c(O)c(O)c2)oc2cc(O)cc(O)c12` [MYRICETIN], the Ki is 27.5 µM in test [9]; 12.1 µM in [1]; 9 µM in test [10]; 0.6 µM in test [8]; 1.7 µM in test [11]. Further, the values for the IC50 in test [3] and in test [8] were 1.8 µM and 0.92 µM, respectively. The Kd in [3] was 0.17 µM.
Regarding `Oc1cc(O)cc(/C=C/c2ccc(O)c(O)c2)c1` [PICEATANNOL], the IC50 in [9] amounted to 3 µM; in [1], 8 µM; in test [12], 19 µM; in test [11] it was 12 µM. Moreover, in [2], the Ki came out at 15 µM.
On to `O=c1c(O)c(-c2ccc(O)c(O)c2)oc2cc(O)cc(O)c12` [QUERCETIN], for which, in test [2], the ID50 was 11 µg/mL (≈ 36.4 µM). In test [3], this molecule gave an IC50 of 3.8 µM and a Kd of 0.28 µM. Also, in test [13], the affinity corresponds to a Ki of 6 µM.
Regarding `Oc1ccc(/C=C/c2cc(O)cc(O)c2)cc1` [RESVERATROL], the figures for the IC50 in test [1], in [8] and in test [14] were 90 µM, 10 µM and 200 µM, respectively. Besides, the Ki in test [1] was found to be 55 µM; in test [8], 1.2 µM.
In the case of `COc1c(O)cc2occ(-c3ccc(O)cc3)c(=O)c2c1O` [TECTORIGENIN], the IC50 in test [6] stood at 3.3 µM.
